Data: ChEMBL document CHEMBL5352411, “Synthesis and investigation of the trypanocidal potential of novel 1,2,3-triazole-selenide hybrids” (Eur J Med Chem, 2022)

Assays:
[1] = Cytotoxicity against HFF-1 cells incubated for 72 hrs by MTS tetrazolium assay; format: toxicity, cell-based; conditions: human
Trypanosoma cruzi = test: Antitrypanosomal activity against intracellular amastigote form of Trypanosoma cruzi Tulahuen expressing Escherichia coli LacZ gene infected in HFF-1 cells incubated for 120 hrs by automated microplate reader; format: functional, organism-based; conditions: HFF-1, 120 h
[2] = Selectivity index, ratio of CC50 for HFF-1 cells to IC50 for intracellular amastigote form of Trypanosoma cruzi Tulahuen expressing Escherichia coli LacZ gene infected in HFF-1 cells; format: toxicity; conditions: human, read-out: Selectivity Index
[3] = Electrochemical behavior of the compound assessed as oxidation onset potential by cyclic voltammetry analysis relative to normal hydrogen electrode; format: physicochemical
[4] = Electrochemical behavior of the compound assessed as reduction onset potential by cyclic voltammetry analysis relative to normal hydrogen electrode; format: physicochemical

SMILES	CC50 at 72 h [1] [µM]	IC50 (Trypanosoma cruzi) [µM]	selectivity ratio [2]	Ep [3] [V]	Ep [4] [V]
COc1ccc(-n2cc(C[Se]c3ccccc3)nn2)cc1	> 64	12.7	> 5	0.75	
c1ccc([Se]Cc2cn(-c3ccccc3)nn2)cc1	48	8.2	5.9	0.79	
Fc1ccc([Se]Cc2cn(-c3ccccc3)nn2)cc1	62.5	11.6	> 5.5	0.76	
c1ccc(-n2cc(C[Se]c3cccc4ccccc34)nn2)cc1	> 64	3.1	> 20.6	0.96	-0.82
c1ccc(-n2cc(C[Se]c3cccs3)nn2)cc1	43.1	15.6	2.8	1.22	
Clc1ccccc1-n1cc(C[Se]c2ccccc2)nn1	> 64	15.2	> 4.2	0.83	
O=C(Cn1ccnc1[N+](=O)[O-])NCc1ccccc1 [BENZNIDAZOLE]	> 64	2.1	> 30.5		
Cc1ccc([Se]Cc2cn(-c3ccccc3)nn2)cc1	56.1	7.4	8.4	0.81	
Clc1ccc(-n2cc(C[Se]c3ccccc3)nn2)cc1	> 64	11.5	> 5.6	0.81	
Cc1cccc(-n2cc(C[Se]c3ccccc3)nn2)c1	> 64	9.2	> 7	0.84	
Cc1cc(C)c([Se]Cc2cn(-c3ccccc3)nn2)c(C)c1		39.2		1.03	
Cc1ccc(-n2cc(C[Se]c3ccccc3)nn2)cc1	> 64	9.3	> 6.9	0.85	
Cc1ccccc1-n1cc(C[Se]c2ccccc2)nn1		9.8	> 6.5	0.83	
Clc1ccc([Se]Cc2cn(-c3ccccc3)nn2)cc1	> 64	16.8	3.3	0.84	
FC(F)(F)c1cccc([Se]Cc2cn(-c3ccccc3)nn2)c1	> 64	5.4	> 11.9	0.97	-0.92
c1ccc(SCc2cn(-c3ccccc3)nn2)cc1		21.2		1.06	
O=[N+]([O-])c1ccc(-n2cc(C[Se]c3ccccc3)nn2)cc1		> 64		0.9	-1.11
